Measured values: publication PMC6214026, “PSMA-Oriented Target Delivery of Novel Anticancer Prodrugs: Design, Synthesis, and Biological Evaluations of Oligopeptide-Camptothecin Conjugates” (International Journal of Molecular Sciences, 2018)
≈ marks a conversion by molar mass, not a printed value. Where “and” joins values, the source holds several entries; their conditions need not be identical. Equal values may be shown once. Read-outs that look alike come from different tables or passages of the source.

Tests used:
[1] = system: DU145 cells (non-PSMA-expressing); assay: cells; assay type: cell-based, human; conditions: MTT, 72 h, mean ± SD, n = 3, read-out: IC50 DU145
Protocol: (§1) The cytotoxicities of PSMA-activated prodrug CPT-HT-J-ZLn and PSMA hydrolysate CPT-D-GLn were evaluated by MTT assays on PSMA-expressing (PSMA^+) cancer cell LNCaP-FGC, non-PSMA-expressing (PSMA^−) cancer cells HepG2, MCF-7, Hela, DU145, and PC-3, and normal cells MDCK, LO2, respectively, using CPT as a positive control.
(§2) The human prostate cancer cell line (LNCaP-FGC), human prostate cancer cell line (PC-3), human prostate cancer cell line (DU-145), human breast cancer cell line (MCF-7), human hepatocellular carcinoma cell line (HepG2), human cervical cancer cell line (Hela), were obtained from the Chinese Academy of Medical Sciences and Peking Union Medical College. The cultures of the cells were maintained as a monolayer in RPMI 1640 or DMEM supplemented with 10% (v/v) heat inactivated fetal bovine serum and 1% (v/v) enicillin/streptomycin (Corning, New York, NY, USA) and incubated at 37 °C in a humidified atmosphere with 5% CO2. The tested compounds were dissolved in DMSO (Sigma, St. Louis, MO, USA) and added at required concentrations to the cell culture.
(§3) The cytotoxicity of all the tested compounds was evaluated in vitro via the MTT method against PSMA-expressing LNCaP-FGC cells and non-PSMA-expressing cells HepG2, Hela, MCF-7, DU145, PC-3 cells using CPT as the positive control. Tumor cells growing in the logarithmic phase were seeded in 96-well plates at a density 3 × 10^3 cells/well and incubated overnight. The following day, cells were then treated with serial dilutions of the tested compounds for 72 h. At the end of this incubation, 20 µL of 5 mg/mL methylthiazol tetrazolium (MTT) was added to each well and incubation proceeded at 37 °C for another 4 h. After the supernatant medium was thrown away, 150 µL dimethylsulphoxide (DMSO) were added to each well and absorbance was measured at 490 nm using a plate reader (BIORAD 550 spectrophotometer, Bio-rad Life Science Development Ltd., Berkeley, CA, USA). Experiments were performed in triplicate and the values were the average of three (n = 3) independent experiments. The concentration of the compound that results in 50% growth inhibition corresponds to the IC50. Tumor cell growth inhibitory rate was calculated using Equation (1): % inhibition = (1 − Sample group OD/Control group OD) × 100%(1)

[2] = system: HepG2 cells (non-PSMA-expressing); assay: cells; assay type: cell-based, human; conditions: MTT, 72 h, mean ± SD, n = 3, read-out: IC50 HepG2
Protocol: as §1, §2, §3

[3] = system: MCF-7 cells (non-PSMA-expressing); assay: cells; assay type: cell-based, human; conditions: MTT, 72 h, mean ± SD, n = 3, read-out: IC50 MCF-7
Protocol: as §1, §2, §3

[4] = system: PC-3 cells (non-PSMA-expressing); assay: cells; assay type: cell-based, human; conditions: MTT, 72 h, mean ± SD, n = 3, read-out: IC50 PC-3
Protocol: as §1, §2, §3

[5] = system: LNCaP-FGC cells (PSMA-expressing); assay: MTT cytotoxicity assay, LNCaP-FGC; assay type: cell-based, human; conditions: for IC50: MTT, 72 h, mean ± SD, n = 3, PSMA+, read-out: IC50 LNCaP-FGC
Protocol: as §1, §2, §3

LO2 cells = assay: cells; assay type: cell-based; conditions: MTT, 72 h, normal cells, read-out: IC50 LO2
Protocol: as §1, §3

MDCK cells = assay: cells; assay type: cell-based; conditions: MTT, 72 h, normal cells, read-out: IC50 MDCK
Protocol: as §1, §3

[6] = Aqueous (equilibrium) solubility study in PBS; assay type: physicochemical; conditions: pH = 7.4, 37 °C
Protocol: The equilibrium solubility of CPT and CPT-HT-J-ZL12 was determined in triplicate in PBS, according to the reference method with some modifications. An excess amount (~5 mg) of the tested compounds were placed into tubes, and 1 mL PBS was added to the tube. Then the tubes were incubated at 37 °C for 24 h in an ermostated oscillator (HZQ-QX, Harbin Donglian Instrument Co., Ltd., Harbin, China). After incubation, samples (0.1 mL) were removed and centrifuged at 10,000× g for 10 min with high speed centrifuge (Sorvall™ Legend™ Micro 21, Thermo Fisher Scientific, Waltham, MA, USA). […] of the supernatant was diluted, and the concentration was measured with HPLC according the method below. CPT and CPT-HT-J-ZL12 were measured by HPLC systems configured with a Waters 2695 separation module and a Waters 2695 ultraviolet (UV) detector with the following conditions: Xbridge C18 column (250 mm × 4.6 mm, […]); temperature, 25 °C; elution flow rate, 1.0 mL/min; detection wavelength, 365 nm. mobile phase, 0.2% […] in water (A) and 0.2% formic acid in acetonitrile (B) using a gradient elution of 10–60% B at 0–5.0 min, 60–80% B at 5.0–15.0 min, 80% B at 15.0–17.0 min, and 10% B at 17.1–23.0 min.

[7] = system: HeLa cells (non-PSMA-expressing); assay: MTT cytotoxicity assay, HeLa; assay type: cell-based, human; conditions: 72 h, mean ± SD, n = 3
Protocol: as §1
The tested compounds were dissolved in DMSO (Sigma, St. Louis, MO, USA) and added at required concentrations to the cell culture.
as §3, with “experiments.” for “experiments. The concentration of the compound that results in 50% growth inhibition corresponds to the IC50. Tumor cell growth inhibitory rate was calculated using Equation (1): % inhibition = (1 − Sample group OD/Control group OD) × 100%(1)”

LNCaP-FGC (PSMA+) cells [8] = assay: In vitro cellular uptake by CLSM, LNCaP-FGC; assay type: cell-based, human; conditions: 10 µM
Text: (§4) In addition to solubilization, the pentapeptide serves to mask the cytotoxicity by preventing nonspecific uptake of drug into cells due to the presence of negative charged amino acids. Upon cleavage of the prodrug by PSMA within the PSMA-expressing cells, the active compound was able to enter cells. […] The nucleus was stained with PI (red) and the fluorescence of CPT was pseudo-colored with blue.
(§5) To evaluate the cellular uptake of the CPT-HT-J-ZL12, LNCaP-FGC (PSMA^+) and HepG2 (PSMA^−) cells were seeded at a density of 1 × 10^4 cells/well in 35 mm glass bottom dishes with 1 mL complete 1640 medium. After incubation for 24 h, the culture medium was replaced with 2 mL of fresh medium containing 10 µM CPT-HT-J-ZL12. Then the cells were incubated further for different incubation time periods (1 and 4 h). Following the removal of the culture media, cells were washed with cold PBS, fixed with 70% ethanol for 30 min at 4 °C. Subsequently, the cells were stained with 5 μg/mL propidium iodide (excitation wavelength was 561 nm) for 5 min to visualize nucleus. The cells were observed by a UltraView RS confocal laser scanning microscopy (PerkinElmer, Waltham, MA, USA).

HepG2 (PSMA−) cells [9] = assay: In vitro cellular uptake by CLSM, HepG2; assay type: cell-based, human; conditions: HepG2, 10 µM, 1 h and 4 h
Text: as §4, §5

LNCaP-FGC (PSMA+) cells [10] = assay: Cell cycle by PI staining flow cytometry, LNCaP-FGC; assay type: cell-based, human; conditions: for percentage of cells in S phase (Dip S): 72 h
Protocol: To further study CPT-HT-J-ZL12-induced growth inhibition, the cell cycle changes were evaluated on LNCaP-FGC (PSMA^+) using flow cytometric methods.
The cell cycle was measured using PI staining and flow cytometry analysis according to the instructions of the manufacturer (Cell Cycle and Apoptosis Analysis Kit, Beyotime Biotechnology, Jiangsu, China). LNCaP-FGC cells (2 × 10^4 cells/mL) in logarithmic growth phase were seeded in 6-well culture plate and incubated for 24 h at 37 °C in incubator with 5% CO2. After exposure to different concentrations of CPT-HT-J-ZL12 (0.63, 1.25, 2.50 μM) for 72 h, cells were harvested and washed twice with cold PBS. Then the cells were centrifuged at 2400× g for 10 min, resuspended in 1 mL 70% cold ethanol and fixed for 12 h at −20 °C. After being washed twice with cold PBS, the cells were incubated with 0.5 mL propidium iodide for 30 min at 37 °C. Detection of the cell cycle was carried out by the Flow Cytometer at 488 nm excitation wavelength

HepG2 (PSMA−) cells [11] = assay: Apoptosis by Annexin V-FITC/PI flow cytometry, HepG2; conditions: 72 h
Protocol: (§6) The apoptotic effect was determined by counting the apoptosis ratios (including the early and late apoptosis ratios).
(§7) To determine early apoptosis and secondary necrosis, LNCaP-FGC (PSMA^+) and HepG2 (PSMA^−) cells were stained with annexin-V FITC apoptosis detection kit (Beijing BioDee Biotech. Co., Ltd., Beijing, China) as per the manufacturer’s instructions. […] The resulting pellet was mixed with 200 µL binding buffer of the Annexin V-FITC kit, then 5 µL FITC labeled annexin V was added and mixed gently. After incubation at 4 °C for 10 min in the dark, 5 µL PI was added and mixed gently. Then the cells were immediately analyzed with a flow cytometry.

LNCaP-FGC (PSMA+) cells [12] = assay: Apoptosis by Annexin V-FITC/PI flow cytometry, LNCaP-FGC; conditions: 72 h
Protocol: as §6, §7

CC[C@@]1(O)C(=O)OCc2c1cc1n(c2=O)Cc2cc3ccccc3nc2-1 [CPT, Camptothecin]
IC50 ([1]; Homo sapiens, DU-145): 0.21 ± 0.09 µM | IC50 ([2]; Homo sapiens, HepG2): 5.43 ± 0.81 µM | IC50 ([3]; Homo sapiens, MCF7): 0.16 ± 0.1 µM | IC50 ([4]; Homo sapiens, PC-3): 0.13 ± 0.09 µM | IC50 ([5]; Homo sapiens): 0.18 ± 0.17 µM | IC50 (LO2 cells; Homo sapiens, L02): 0.04 ± 0.01 µM | IC50 (MDCK cells; Canis lupus familiaris, MDCK): 0.02 ± 0.01 µM | solubility at 24 h [6]: 3 µg/mL (≈ 8.61 µM)

CC[C@@]1(OC(=O)CCCCCNC(=O)[C@@H](N)CCC(=O)N[C@@H](CCC(=O)N[C@@H](CCC(=O)N[C@@H](CC(=O)O)C(=O)N[C@@H](CCC(=O)O)C(=O)O)C(=O)O)C(=O)O)C(=O)OCc2c1cc1n(c2=O)Cc2cc3ccccc3nc2-1 [CPT-HT-J-ZL6, (3S,6S,11S,16S,21S)-21-amino-6-(carboxymethyl)-29-(((S)-4-ethyl-3,14-dioxo-3,4,12,14-tetrahydro-1H-pyrano[3′,4′:6,7]indolizino[1,2-b]quinolin-4-yl)oxy)-5,8,13,18,22,29-hexaoxo-4,7,12,17,23-pentaazanonacosane-1,3,11,16-tetracarboxylic acid]
IC50 [1]: 26.3 ± 1.81 µM | IC50 [2]: > 40 µM | IC50 [3]: 7.03 ± 3.76 µM | IC50 [4]: 40 ± 3.37 µM | IC50 [5]: 3.13 ± 0.4 µM | IC50 [7]: > 40 µM | IC50 (LO2 cells): > 40 µM | IC50 (MDCK cells): 19 ± 3.6 µM

CC[C@@]1(OC(=O)CCCCCCCCCCCNC(=O)[C@@H](N)CCC(=O)N[C@@H](CCC(=O)N[C@@H](CCC(=O)N[C@@H](CC(=O)O)C(=O)N[C@@H](CCC(=O)O)C(=O)O)C(=O)O)C(=O)O)C(=O)OCc2c1cc1n(c2=O)Cc2cc3ccccc3nc2-1 [CPT-HT-J-ZL12, (3S,6S,11S,16S,21S)-21-amino-6-(carboxymethyl)-35-(((S)-4-ethyl-3,14-dioxo-3,4,12,14-tetrahydro-1H-pyrano[3′,4′:6,7]indolizino[1,2-b]quinolin-4-yl)oxy)-5,8,13,18,22,35-hexaoxo-4,7,12,17,23-pentaazapentatriacontane-1,3,11,16-tetracarboxylic acid]
IC50 [1]: 5.4 ± 1.22 µM | IC50 [2]: > 40 µM | IC50 [3]: 21.7 ± 4.96 µM | IC50 [4]: 43 ± 3.69 µM | cytotoxicity against LNCaP-FGC higher than against DU145 ([5]; LNCaP-FGC (PSMA+) vs DU145): 5 fold | cytotoxicity against LNCaP-FGC higher than against Hela ([5]; LNCaP-FGC (PSMA+) vs Hela): 40 fold and ~ 40 fold | cytotoxicity against LNCaP-FGC higher than against HepG2 ([5]; LNCaP-FGC (PSMA+) vs HepG2): 40 fold and ~ 40 fold | cytotoxicity against LNCaP-FGC higher than against MCF-7 ([5]; LNCaP-FGC (PSMA+) vs MCF-7): 21 fold | IC50 [5]: 1 ± 0.2 µM | IC50 [7]: > 40 µM | IC50 (LO2 cells): > 40 µM | IC50 (MDCK cells): > 40 µM | cellular uptake (blue CPT fluorescence intensity) (LNCaP-FGC (PSMA+) cells [8]; 1 h): stronger | cellular uptake (blue CPT fluorescence) (LNCaP-FGC (PSMA+) cells [8]; 4 h): increased with the incubation time | cellular uptake (blue CPT fluorescence) (HepG2 (PSMA−) cells [9]): almost no blue fluorescence | percentage of cells in S phase (Dip S) (LNCaP-FGC (PSMA+) cells [10]; 1.25 µM): 70.86% | percentage of cells in S phase (Dip S) (LNCaP-FGC (PSMA+) cells [10]; 2.50 µM): 83.66% | effect on cell cycle (LNCaP-FGC (PSMA+) cells [10]; 0.63 to 2.50 µM): induce cell cycle arrest at the S phase | percentage of apoptotic cells (HepG2 (PSMA−) cells [11]; HepG2, 20.00 µM): 19.80% | percentage of apoptotic cells (HepG2 (PSMA−) cells [11]; HepG2, 40.00 µM): 28.30% | percentage of apoptotic cells (HepG2 (PSMA−) cells [11]; HepG2, 80.00 µM): 30.10% | apoptosis ratio (early and late) (LNCaP-FGC (PSMA+) cells [12]; 0.63 µM): 29.90% | apoptosis ratio (early and late) (LNCaP-FGC (PSMA+) cells [12]; 1.25 µM): 33.30% | apoptosis ratio (early and late) (LNCaP-FGC (PSMA+) cells [12]; 2.50 µM): 48.90%
